Source: patent US8012970B2, “Derivatives of 1-{[1,5-bis(4-chlorophenyl)-2-methyl-1H-pyrrol-3-yl]methyl}-4-methylpiperazine, synthesis process and uses thereof” (priority 2005, dated 2011)
≈ marks a conversion by molar mass, not a printed value. Where two headings read alike, the source gives them in different places.

How the values were obtained:
Type in all cases: cell-based
[1] = tested on: M. smegmatis 103599; test: Antimycobacterial activity toward atypical mycobacteria, MIC in broth
[2] = tested on: M. tuberculosis 103471; test: Antimycobacterial activity, MIC in Middlebrook 7H9 broth (NCCLS procedure); settings: for MIC: Mycobacterium tuberculosis, 103471, read-out: M. tuberculosis 103471 MIC (μg/mL); for M. tuberculosis 103471 MIC: extracellular M. tuberculosis 103471
[3] = tested on: VERO cells; test: Cytotoxicity on Vero cell monolayers (MNTD50); settings: maximum 50% non-toxic dose, 5 days
Procedure: The cytotoxicity was evaluated on Vero cell monolayers (ICN-Flow). They were inoculated in 6-well plates each containing 9×10^4 cells and incubated in DMEM with 5% FCS for 24 h at 37° C. in a 5% CO2 incubator. After 24 h of culture, the medium was changed and a new medium containing decreasing doses of the substances under study was added.
After 5 days, the cells were trypsinized and counted in a Neubauer chamber under a light microscope. All the tests were done in triplicate. The maximum 50% non-toxic dose (MNTD50) was defined as the drug concentration that decreased cell multiplication less than 50% with respect to the control.

[4] = tested on: M. avium 103317; test: Antimycobacterial activity toward atypical mycobacteria, MIC in broth
[5] = tested on: M. marinum 6423; test: as above
[6] = tested on: intracellular M. tuberculosis; test: Inhibitory activity on intramacrophagic mycobacteria in U937 cells differentiated into macrophages; settings: Mycobacterium tuberculosis, read-out: MIC (μg/mL) Inhibition of intramacrophagic mycobacteria
Procedure: Inhibitory Activity of 6e and 7c on Intramacrophagic Mycobacteria.
The bactericidal activity of such compounds on intracellular mycobacteria was studied on U937 cells (INC-FLOW), a human hystiocytic cell line. Cells were differentiated into macrophages with 20 ng/mL of phorbol myristate acetate (PMA, Sigma) and grown in RPMI 1640 medium with 10% fetal calf serum.

[7] = Mycolicibacterium smegmatis, 103599; read-out: MIC (μg/mL) M. smegmatis 103599
[8] = Mycobacterium avium, 103317; read-out: MIC (μg/mL) M. avium 103317
[9] = Mycobacterium marinum, 6423; read-out: MIC (μg/mL) M. marinum 6423

Row | Structure (SMILES) | MIC [1, 7] [µg/mL] | MIC [2] [µg/mL] | MNTD50 (μg/mL) VERO cells [3] [µg/mL] | MIC [4, 8] [µg/mL] | MIC [5, 9] [µg/mL] | MIC (μg/mL) M. smegmatis 103599 [1] [µg/mL] | M. tuberculosis 103471 MIC [2] [µg/mL] | MIC (μg/mL) M. avium 103317 [4] [µg/mL] | MIC (μg/mL) M. marinum 6423 [5] [µg/mL] | MIC [6] [µg/mL] | MIC ([1]; Mycolicibacterium smegmatis, 103599, read-out: MIC (μg/mL) M. smegmatis 103599) [µg/mL] | MIC ([4]; Mycobacterium avium, 103317, read-out: MIC (μg/mL) M. avium 103317) [µg/mL] | MIC ([5]; Mycobacterium marinum, 6423, read-out: MIC (μg/mL) M. marinum 6423) [µg/mL]
1 | Cc1c(CN2CCN(C)CC2)cc(-c2ccc(Cl)cc2)n1-c1ccc(Cl)cc1 [BM212, 1-{[1,5-bis(4-chlorophenyl)-2-methyl-1H-pyrrol-3-yl]methyl}-4-methylpiperazine] | 25 (≈ 60.3 µM) | 0.7 (≈ 1.69 µM) | 4 | 0.4 (≈ 0.965 µM) | 100 (≈ 241 µM) | – | – | – | – | – | – | – | –
2 | Cc1c(CN2CCSCC2)cc(-c2ccccc2Cl)n1-c1ccc(F)cc1 [Compound 6a] | – | – | 4 | – | – | >16 | 4 | 16 (≈ 39.9 µM) | >16 | – | – | – | –
3 | Cc1c(CN2CCN(C)CC2)cc(-c2ccccc2Cl)n1-c1ccc(F)cc1 [Compound 6b] | – | – | 2 | – | – | >16 | 8 | 16 (≈ 40.2 µM) | >16 | – | – | – | –
4 | Cc1c(CN2CCSCC2)cc(-c2ccccc2F)n1-c1ccc(F)cc1 [Compound 6c] | – | – | 16 | – | – | >16 | 0.5 | 16 (≈ 41.6 µM) | >16 | – | – | – | –
5 | Cc1c(CN2CCN(C)CC2)cc(-c2ccccc2F)n1-c1ccc(F)cc1 [Compound 6d] | – | – | 4 | – | – | >16 | 16 | >16 | >16 | – | – | – | –
6 | Cc1ccc(-c2cc(CN3CCSCC3)c(C)n2-c2ccc(F)cc2)cc1 [Compound 6e, N-(p-fluorophenyl)-2-methyl-3-thiomorpholinomethyl-5-(p-methylphenyl)pyrrole] | 16 (≈ 42 µM) | 0.4 (≈ 1.05 µM) | 64 | 8 (≈ 21 µM) | 8 (≈ 21 µM) | – | – | – | – | 3 (≈ 7.88 µM) | – | – | –
7 | Cc1ccc(-c2cc(CN3CCN(C)CC3)c(C)n2-c2ccc(F)cc2)cc1 [Compound 6f] | – | – | 8 | – | – | 8 (≈ 21.2 µM) | 4 | 4 (≈ 10.6 µM) | >16 | – | – | – | –
8 | Cc1c(CN2CCSCC2)cc(-c2ccc(Cl)cc2Cl)n1-c1ccc(F)cc1 [Compound 6g] | – | – | 64 | – | – | >16 | 2 | 4 (≈ 9.19 µM) | >16 | – | – | – | –
9 | Cc1c(CN2CCN(C)CC2)cc(-c2ccc(Cl)cc2Cl)n1-c1ccc(F)cc1 [Compound 6h] | – | – | 16 | – | – | >16 | 8 | 2 (≈ 4.63 µM) | >16 | – | – | – | –
10 | Cc1c(CN2CCSCC2)cc(-c2ccc(F)cc2F)n1-c1ccc(F)cc1 [Compound 6i] | – | – | 16 | – | – | >16 | 0.5 | 16 (≈ 39.8 µM) | 16 (≈ 39.8 µM) | – | – | – | –
11 | Cc1c(CN2CCN(C)CC2)cc(-c2ccc(F)cc2F)n1-c1ccc(F)cc1 [Compound 6j] | – | – | 8 | – | – | >16 | 4 | 16 (≈ 40.1 µM) | >16 | – | – | – | –
12 | Cc1c(CN2CCSCC2)cc(-c2cccc3ccccc23)n1-c1ccc(F)cc1 [Compound 6k] | – | – | >128 | – | – | >16 | >16 | >16 | >16 | – | – | – | –
13 | Cc1c(CN2CCN(C)CC2)cc(-c2cccc3ccccc23)n1-c1ccc(F)cc1 [Compound 6l] | – | – | 4 | – | – | >16 | 16 | 8 (≈ 19.3 µM) | 16 (≈ 38.7 µM) | – | – | – | –
14 | Cc1c(CN2CCSCC2)cc(-c2ccc(F)cc2)n1-c1ccccc1Cl [Compound 7a] | – | – | 8 | – | – | >16 | 2 | >16 | >16 | – | – | – | –
15 | Cc1c(CN2CCN(C)CC2)cc(-c2ccc(F)cc2)n1-c1ccccc1Cl [Compound 7b] | – | – | 8 | – | – | >16 | 4 | >16 | >16 | – | – | – | –
16 | Cc1c(CN2CCSCC2)cc(-c2ccc(F)cc2)n1-c1ccccc1F [Compound 7c, N-(o-fluorophenyl)-2-methyl-3-thiomorpholinomethyl-5-(p-fluorophenyl)pyrrole] | 8 (≈ 20.8 µM) | 0.5 (≈ 1.3 µM) | 8 | 8 (≈ 20.8 µM) | > 16 | – | – | – | – | 3 (≈ 7.8 µM) | – | – | –
17 | Cc1c(CN2CCN(C)CC2)cc(-c2ccc(F)cc2)n1-c1ccccc1F [Compound 7d] | – | – | 8 | – | – | 0.3 (≈ 0.786 µM) | 8 | 16 (≈ 41.9 µM) | >16 | – | – | – | –
18 | Cc1ccc(-n2c(-c3ccc(F)cc3)cc(CN3CCSCC3)c2C)cc1 [Compound 7e] | – | – | 8 | – | – | 16 (≈ 42 µM) | 4 | 8 (≈ 21 µM) | 8 (≈ 21 µM) | – | – | – | –
19 | Cc1ccc(-n2c(-c3ccc(F)cc3)cc(CN3CCN(C)CC3)c2C)cc1 [Compound 7f] | – | – | 8 | – | – | >16 | 16 | 16 (≈ 42.4 µM) | 8 (≈ 21.2 µM) | – | – | – | –
20 | Cc1c(CN2CCSCC2)cc(-c2ccc(F)cc2)n1-c1ccc(Cl)cc1Cl [Compound 7g] | – | – | 4 | – | – | 16 (≈ 36.7 µM) | 1 | 2 (≈ 4.59 µM) | 8 (≈ 18.4 µM) | – | – | – | –
21 | Cc1c(CN2CCN(C)CC2)cc(-c2ccc(F)cc2)n1-c1ccc(Cl)cc1Cl [Compound 7h] | – | – | 2 | – | – | >16 | 4 | 4 (≈ 9.25 µM) | 8 (≈ 18.5 µM) | – | – | – | –
22 | Cc1c(CN2CCSCC2)cc(-c2ccc(F)cc2)n1-c1ccc(F)cc1F [Compound 7i] | – | – | 16 | – | – | >16 | 2 | 16 (≈ 39.8 µM) | 16 (≈ 39.8 µM) | – | – | – | –
23 | Cc1c(CN2CCN(C)CC2)cc(-c2ccc(F)cc2)n1-c1ccc(F)cc1F [Compound 7j] | – | – | 16 | – | – | >16 | 16 | 16 (≈ 40.1 µM) | 16 (≈ 40.1 µM) | – | – | – | –
24 | Cc1c(CN2CCSCC2)cc(-c2ccc(F)cc2)n1-c1cccc2ccccc12 [Compound 7k] | – | – | 2 | – | – | >16 | 4 | 8 (≈ 19.2 µM) | 16 (≈ 38.4 µM) | – | – | – | –
25 | Cc1c(CN2CCN(C)CC2)cc(-c2ccc(F)cc2)n1-c1cccc2ccccc12 [Compound 7l] | – | – | 4 | – | – | >16 | 4 | 8 (≈ 19.3 µM) | 8 (≈ 19.3 µM) | – | – | – | –
26 | NNC(=O)c1ccncc1 [Isoniazid, reference compound] | – | 0.25 (≈ 1.82 µM) | 32 | – | – | – | – | – | – | – | 64 (≈ 467 µM) | 32 (≈ 233 µM) | 16 (≈ 117 µM)
27 | CO[C@H]1/C=C/O[C@@]2(C)Oc3c(C)c(O)c4c(O)c(c(/C=N/N5CCN(C)CC5)c(O)c4c3C2=O)NC(=O)/C(C)=C\C=C\[C@H](C)[C@H](O)[C@@H](C)[C@@H](O)[C@@H](C)[C@H](OC(C)=O)[C@@H]1C [Rifampin, reference compound] | 32 (≈ 38.9 µM) | 0.3 (≈ 0.365 µM) | 64 | 0.3 (≈ 0.365 µM) | 0.6 (≈ 0.729 µM) | – | 0.3 | – | – | 3 (≈ 3.65 µM) | – | – | –
28 | [H]/N=C(/N)N[C@H]1[C@H](O)[C@@H](O)[C@H](O[C@@H]2O[C@@H](C)[C@](O)(C=O)[C@H]2O[C@@H]2O[C@@H](CO)[C@H](O)[C@@H](O)[C@@H]2NC)[C@@H](N/C(N)=N\[H])[C@@H]1O [Streptomycin, reference compound] | 8 (≈ 13.8 µM) | 0.5 (≈ 0.86 µM) | >64 | 8 (≈ 13.8 µM) | 32 (≈ 55 µM) | – | – | – | – | – | – | – | –
